Several values for one entry are separate records, joined by “and”; a condition that tells them apart may be missing. Equal entries are not always repeated.
Legend:
Test in all cases: radiometric filter-binding kinase assay, Kinase HotSpot
Conditions in all cases: compound 0.5 µM; ATP 10 µM
NUAK2 (human) = NUAK2 (human) (UniProt Q9H093)
MAPK3 (human) = MAPK3 (human) (UniProt P27361)
DSTYK (human) = DSTYK (human) (UniProt Q6XUX3)
PRKACG (human) = PRKACG (human) (UniProt P22612)
CSNK1A1 (human) = CSNK1A1 (human) (UniProt P48729)
RPS6KA2 KD1 KD2 (human) = RPS6KA2 KD1 KD2 (human) (UniProt Q15349)
PASK (human) = PASK (human) (UniProt Q96RG2)
Chain of PASK (human) (Q96RG2 whole entry, looked up): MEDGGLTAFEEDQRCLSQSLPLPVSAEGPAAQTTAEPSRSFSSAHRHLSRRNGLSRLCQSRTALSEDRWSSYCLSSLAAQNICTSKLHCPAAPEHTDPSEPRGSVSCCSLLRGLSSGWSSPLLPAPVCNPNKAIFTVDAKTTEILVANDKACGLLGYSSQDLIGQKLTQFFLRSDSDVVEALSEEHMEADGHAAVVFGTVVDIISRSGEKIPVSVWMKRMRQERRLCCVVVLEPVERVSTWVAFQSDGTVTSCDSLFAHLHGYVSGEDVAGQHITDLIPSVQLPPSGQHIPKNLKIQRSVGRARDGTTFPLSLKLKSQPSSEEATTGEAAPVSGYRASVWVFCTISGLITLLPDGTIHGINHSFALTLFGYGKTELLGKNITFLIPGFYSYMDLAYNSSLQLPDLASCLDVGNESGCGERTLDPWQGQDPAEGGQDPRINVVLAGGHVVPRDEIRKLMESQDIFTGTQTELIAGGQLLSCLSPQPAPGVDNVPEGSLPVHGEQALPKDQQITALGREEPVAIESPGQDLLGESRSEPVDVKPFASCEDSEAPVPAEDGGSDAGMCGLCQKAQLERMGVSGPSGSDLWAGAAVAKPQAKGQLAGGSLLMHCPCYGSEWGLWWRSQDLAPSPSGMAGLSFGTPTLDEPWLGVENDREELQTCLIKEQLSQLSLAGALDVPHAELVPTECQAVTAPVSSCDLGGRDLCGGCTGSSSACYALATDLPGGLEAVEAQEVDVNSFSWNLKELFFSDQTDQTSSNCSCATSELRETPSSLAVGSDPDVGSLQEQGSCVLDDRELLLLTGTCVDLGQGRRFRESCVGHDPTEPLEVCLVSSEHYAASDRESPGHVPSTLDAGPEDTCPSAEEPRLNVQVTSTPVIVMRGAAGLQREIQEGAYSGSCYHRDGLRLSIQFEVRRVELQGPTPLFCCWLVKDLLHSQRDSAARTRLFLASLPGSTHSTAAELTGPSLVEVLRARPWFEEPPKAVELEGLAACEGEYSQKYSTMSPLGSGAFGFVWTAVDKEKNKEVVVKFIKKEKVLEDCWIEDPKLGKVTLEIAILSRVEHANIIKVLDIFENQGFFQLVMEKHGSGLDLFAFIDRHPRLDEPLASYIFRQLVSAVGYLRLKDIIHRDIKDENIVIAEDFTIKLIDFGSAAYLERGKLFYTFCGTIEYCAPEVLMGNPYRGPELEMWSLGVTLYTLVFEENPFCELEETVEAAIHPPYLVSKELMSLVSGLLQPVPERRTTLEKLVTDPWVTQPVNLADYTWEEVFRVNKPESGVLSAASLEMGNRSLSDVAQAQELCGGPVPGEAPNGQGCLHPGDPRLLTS

BRAF (human) = BRAF (human) (UniProt P15056)
CSNK1G3 (human) = CSNK1G3 (human) (UniProt Q9Y6M4)
CAMK2B (human) = CAMK2B (human) (UniProt Q13554)
CDK3 CCNE1 (human) = CDK3 CCNE1 (human) (UniProt Q00526+P24864)
TYRO3 (human) = TYRO3 (human) (UniProt Q06418)
TLK2 (human) = TLK2 (human) (UniProt Q86UE8)
ITK (human) = ITK (human) (UniProt Q08881)
EPHA8 (human) = EPHA8 (human) (UniProt P29322)
[1] = target: JAK1 JH1 catalytic (human) (UniProt P23458)
INSRR (human) = INSRR (human) (UniProt P14616)
RPS6KA1 KD1 KD2 (human) = RPS6KA1 KD1 KD2 (human) (UniProt Q15418)
ULK3 (human) = ULK3 (human) (UniProt Q6PHR2)
ROS1 (human) = ROS1 (human) (UniProt P08922)
[2] = tested on: ARAF (human), P10398 [Y301D/Y302D]
PKN1 (human) = PKN1 (human) (UniProt Q16512)
TAOK1 (human) = TAOK1 (human) (UniProt Q7L7X3)
MARK4 (human) = MARK4 (human) (UniProt Q96L34)
PDGFRB (human) = PDGFRB (human) (UniProt P09619)
Chain of PDGFRB (human) (P09619 whole entry, looked up): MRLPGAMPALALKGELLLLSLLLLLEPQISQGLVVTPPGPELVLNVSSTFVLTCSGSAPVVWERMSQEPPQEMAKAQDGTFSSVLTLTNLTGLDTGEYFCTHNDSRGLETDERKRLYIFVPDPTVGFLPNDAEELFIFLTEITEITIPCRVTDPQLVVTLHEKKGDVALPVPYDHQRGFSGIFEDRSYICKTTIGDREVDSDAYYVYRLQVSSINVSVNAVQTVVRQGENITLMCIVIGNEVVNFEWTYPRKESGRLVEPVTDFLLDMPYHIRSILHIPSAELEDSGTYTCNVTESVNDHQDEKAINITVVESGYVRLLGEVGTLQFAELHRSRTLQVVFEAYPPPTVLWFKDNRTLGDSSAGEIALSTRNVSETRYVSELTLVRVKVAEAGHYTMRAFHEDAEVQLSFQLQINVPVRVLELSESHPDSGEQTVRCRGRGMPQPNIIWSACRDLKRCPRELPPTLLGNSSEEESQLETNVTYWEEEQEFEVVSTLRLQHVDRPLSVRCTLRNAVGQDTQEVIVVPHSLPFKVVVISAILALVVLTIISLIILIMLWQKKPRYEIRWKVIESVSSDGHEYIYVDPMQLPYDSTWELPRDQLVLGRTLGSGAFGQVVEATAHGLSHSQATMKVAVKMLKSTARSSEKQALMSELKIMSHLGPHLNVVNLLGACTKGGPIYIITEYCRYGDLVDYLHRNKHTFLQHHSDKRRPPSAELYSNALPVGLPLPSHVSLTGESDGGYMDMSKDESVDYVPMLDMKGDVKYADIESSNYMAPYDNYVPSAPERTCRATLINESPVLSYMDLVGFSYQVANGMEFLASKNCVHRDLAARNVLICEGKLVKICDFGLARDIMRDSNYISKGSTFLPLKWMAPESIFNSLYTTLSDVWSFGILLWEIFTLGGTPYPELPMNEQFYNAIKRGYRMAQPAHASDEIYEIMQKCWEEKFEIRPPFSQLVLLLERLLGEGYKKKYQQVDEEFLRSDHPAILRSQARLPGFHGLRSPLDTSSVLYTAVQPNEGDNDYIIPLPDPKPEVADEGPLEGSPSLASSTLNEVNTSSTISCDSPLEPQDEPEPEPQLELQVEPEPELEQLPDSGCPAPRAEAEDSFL

STK25 (human) = STK25 (human) (UniProt O00506)
Chain of STK25 (human) (O00506 whole entry, looked up): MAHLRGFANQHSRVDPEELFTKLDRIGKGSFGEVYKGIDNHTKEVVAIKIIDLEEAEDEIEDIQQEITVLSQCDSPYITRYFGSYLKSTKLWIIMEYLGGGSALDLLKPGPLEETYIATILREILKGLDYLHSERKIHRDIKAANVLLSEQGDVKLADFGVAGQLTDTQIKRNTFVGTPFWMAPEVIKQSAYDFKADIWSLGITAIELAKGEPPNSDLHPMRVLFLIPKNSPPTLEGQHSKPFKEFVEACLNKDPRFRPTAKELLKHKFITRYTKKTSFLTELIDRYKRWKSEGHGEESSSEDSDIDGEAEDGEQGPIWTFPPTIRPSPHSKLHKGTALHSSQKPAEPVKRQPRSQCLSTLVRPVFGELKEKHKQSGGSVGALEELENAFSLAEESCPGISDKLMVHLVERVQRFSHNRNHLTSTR

PRKCZ (human) = PRKCZ (human) (UniProt Q05513)
PRKG1 (human) = PRKG1 (human) (UniProt Q13976)
CLK4 (human) = CLK4 (human) (UniProt Q9HAZ1)
PRKCG (human) = PRKCG (human) (UniProt P05129)
STK38 (human) = STK38 (human) (UniProt Q15208)
SRC (human) = SRC (human) (UniProt P12931)
Chain of SRC (human) (P12931 whole entry, looked up): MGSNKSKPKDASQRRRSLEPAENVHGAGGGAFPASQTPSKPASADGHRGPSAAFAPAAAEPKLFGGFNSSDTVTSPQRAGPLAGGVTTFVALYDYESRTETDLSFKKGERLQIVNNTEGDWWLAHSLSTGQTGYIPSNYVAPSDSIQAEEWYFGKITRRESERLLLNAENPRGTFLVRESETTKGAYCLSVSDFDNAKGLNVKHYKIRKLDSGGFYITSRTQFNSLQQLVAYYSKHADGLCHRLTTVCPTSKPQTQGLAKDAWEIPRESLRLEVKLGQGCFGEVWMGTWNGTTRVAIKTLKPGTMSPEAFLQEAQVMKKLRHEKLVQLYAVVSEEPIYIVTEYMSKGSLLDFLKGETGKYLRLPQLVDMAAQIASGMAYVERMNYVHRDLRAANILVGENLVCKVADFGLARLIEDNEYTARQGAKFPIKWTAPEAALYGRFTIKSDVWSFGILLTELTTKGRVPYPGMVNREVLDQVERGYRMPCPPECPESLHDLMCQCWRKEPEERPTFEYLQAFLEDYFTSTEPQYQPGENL

DYRK2 (human) = DYRK2 (human) (UniProt Q92630)
MYO3B (human) = MYO3B (human) (UniProt Q8WXR4)
ABL1 (human) = ABL1 (human) (UniProt P00519)
CSNK2A2 (human) = CSNK2A2 (human) (UniProt P19784)
EPHA6 (human) = EPHA6 (human) (UniProt Q9UF33)
MAPK8 (human) = MAPK8 (human) (UniProt P45983)
Chain of MAPK8 (human) (P45983 whole entry, looked up): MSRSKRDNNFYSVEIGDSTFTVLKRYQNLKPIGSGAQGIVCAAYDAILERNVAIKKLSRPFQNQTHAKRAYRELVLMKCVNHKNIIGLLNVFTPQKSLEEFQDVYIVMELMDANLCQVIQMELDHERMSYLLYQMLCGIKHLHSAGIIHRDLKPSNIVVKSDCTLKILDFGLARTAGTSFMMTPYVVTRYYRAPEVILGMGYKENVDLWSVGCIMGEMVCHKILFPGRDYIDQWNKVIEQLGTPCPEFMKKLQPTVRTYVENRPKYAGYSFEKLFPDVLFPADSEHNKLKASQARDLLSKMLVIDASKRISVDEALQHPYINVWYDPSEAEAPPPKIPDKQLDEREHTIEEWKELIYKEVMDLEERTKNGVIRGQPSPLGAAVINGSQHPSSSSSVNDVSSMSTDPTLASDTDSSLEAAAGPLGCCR

PRKCE (human) = PRKCE (human) (UniProt Q02156)
Chain of PRKCE (human) (Q02156 whole entry, looked up): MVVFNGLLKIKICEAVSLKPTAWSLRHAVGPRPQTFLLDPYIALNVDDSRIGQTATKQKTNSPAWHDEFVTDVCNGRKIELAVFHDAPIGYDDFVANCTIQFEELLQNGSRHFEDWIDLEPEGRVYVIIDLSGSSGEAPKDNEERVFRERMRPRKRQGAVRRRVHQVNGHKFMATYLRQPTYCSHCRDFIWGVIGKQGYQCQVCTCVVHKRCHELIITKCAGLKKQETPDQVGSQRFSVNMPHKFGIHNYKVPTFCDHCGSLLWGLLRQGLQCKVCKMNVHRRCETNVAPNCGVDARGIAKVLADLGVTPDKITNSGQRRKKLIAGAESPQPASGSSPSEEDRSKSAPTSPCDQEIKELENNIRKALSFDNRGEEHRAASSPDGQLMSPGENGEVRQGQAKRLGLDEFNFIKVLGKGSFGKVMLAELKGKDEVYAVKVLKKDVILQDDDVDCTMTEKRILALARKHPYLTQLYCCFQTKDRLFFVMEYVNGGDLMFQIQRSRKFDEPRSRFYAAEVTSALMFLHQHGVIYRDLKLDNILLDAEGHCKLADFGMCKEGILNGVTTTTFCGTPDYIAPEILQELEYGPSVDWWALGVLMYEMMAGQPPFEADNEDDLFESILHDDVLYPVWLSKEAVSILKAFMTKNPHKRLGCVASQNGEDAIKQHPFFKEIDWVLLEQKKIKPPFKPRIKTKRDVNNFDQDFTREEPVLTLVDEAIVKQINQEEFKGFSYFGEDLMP

CHEK1 (human) = CHEK1 (human) (UniProt O14757)
EGFR (human) = EGFR (human) (UniProt P00533)

Chain of PRKACG (human) (P22612 whole entry, looked up): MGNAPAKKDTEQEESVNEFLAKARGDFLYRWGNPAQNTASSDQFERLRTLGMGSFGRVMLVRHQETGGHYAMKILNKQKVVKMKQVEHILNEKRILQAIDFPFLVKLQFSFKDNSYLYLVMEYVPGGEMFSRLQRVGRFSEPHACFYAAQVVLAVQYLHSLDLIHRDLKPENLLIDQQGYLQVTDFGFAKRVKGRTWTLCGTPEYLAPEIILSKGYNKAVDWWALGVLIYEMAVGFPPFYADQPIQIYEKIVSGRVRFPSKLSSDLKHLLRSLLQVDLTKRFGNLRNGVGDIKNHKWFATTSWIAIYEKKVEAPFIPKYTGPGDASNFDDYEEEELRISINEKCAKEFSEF

Compound	residual activity (NUAK2 (human)) [%]	residual activity (MAPK3 (human)) [%]	residual activity (DSTYK (human)) [%]	residual activity (PRKACG (human)) [%]	residual activity (CSNK1A1 (human)) [%]	residual activity (RPS6KA2 KD1 KD2 (human)) [%]	residual activity (PASK (human)) [%]	residual activity (BRAF (human)) [%]	residual activity (CSNK1G3 (human)) [%]	residual activity (CAMK2B (human)) [%]	residual activity (CDK3 CCNE1 (human)) [%]	residual activity (TYRO3 (human)) [%]	residual activity (TLK2 (human)) [%]	residual activity (ITK (human)) [%]	residual activity (EPHA8 (human)) [%]	residual activity [1] [%]	residual activity (INSRR (human)) [%]	residual activity (RPS6KA1 KD1 KD2 (human)) [%]	residual activity (ULK3 (human)) [%]	residual activity (ROS1 (human)) [%]	also measured
O=C(Nc1ccc(Cl)cc1)c1ccccc1NCc1ccncc1	137	102	94.7	87.4	88.1	94.1	97.1	90	105	93.4	87.4	105	97.3	94.1	87.6	91.8	96.1	92	84.7	100	residual activity [2]: 91.4%; residual activity (PKN1 (human)): 95.2%; residual activity (TAOK1 (human)): 110%; residual activity (MARK4 (human)): 107%; residual activity (PDGFRB (human)): 45%; residual activity (STK25 (human)): 91.6%; residual activity (PRKCZ (human)): 100%; residual activity (PRKG1 (human)): 86.8% and 92.3%; residual activity (CLK4 (human)): 107%; residual activity (PRKCG (human)): 102%; residual activity (STK38 (human)): 97.5%; residual activity (SRC (human)): 88.8%; residual activity (DYRK2 (human)): 96%; residual activity (MYO3B (human)): 82%; residual activity (ABL1 (human)): 99.7%; residual activity (CSNK2A2 (human)): 98.3%; residual activity (EPHA6 (human)): 89.8%; residual activity (MAPK8 (human)): 109%; residual activity (PRKCE (human)): 97%; residual activity (CHEK1 (human)): 96.4%
CS(=O)c1ccc(-c2nc(-c3ccc(F)cc3)c(-c3ccncc3)[nH]2)cc1 (centres undefined)	131	101	100	107	63.9	102	99.1	78.8	103	97.6	94.6	97	96.5	97	101	105	100	99.9	83.2	94.4	residual activity [2]: 42.7%; residual activity (PKN1 (human)): 96.5%; residual activity (TAOK1 (human)): 97.9%; residual activity (MARK4 (human)): 98.5%; residual activity (PDGFRB (human)): 103%; residual activity (STK25 (human)): 111%; residual activity (PRKCZ (human)): 103%; residual activity (PRKG1 (human)): 88.8% and 94.3%; residual activity (CLK4 (human)): 98.7%; residual activity (PRKCG (human)): 90%; residual activity (STK38 (human)): 105%; residual activity (SRC (human)): 92.6%; residual activity (DYRK2 (human)): 98.7%; residual activity (MYO3B (human)): 104%; residual activity (ABL1 (human)): 97%; residual activity (EPHA6 (human)): 57.2%; residual activity (MAPK8 (human)): 96.1%; residual activity (PRKCE (human)): 115%; residual activity (CHEK1 (human)): 97.3%
COc1ccc(-c2cnc3c(-c4ccsc4)cnn3c2)cc1	138	99.5	97.6	93.9	101	87.5	79.5	85.9	102	88.7	84.9	91.8	96.2	95.2	90.3	87	98.7	85.7	79.4	98.8	residual activity (PKN1 (human)): 93.1%; residual activity (TAOK1 (human)): 105%; residual activity (MARK4 (human)): 92.7%; residual activity (PDGFRB (human)): 63.4%; residual activity (STK25 (human)): 102%; residual activity (PRKCZ (human)): 107%; residual activity (PRKG1 (human)): 86.5% and 89.1%; residual activity (CLK4 (human)): 62%; residual activity (PRKCG (human)): 112%; residual activity (STK38 (human)): 102%; residual activity (SRC (human)): 91.7%; residual activity (DYRK2 (human)): 71.1%; residual activity (MYO3B (human)): 84%; residual activity (ABL1 (human)): 72.9%; residual activity (CSNK2A2 (human)): 87.3%; residual activity (EPHA6 (human)): 85.1%; residual activity (EGFR (human)): 92.3%; residual activity (MAPK8 (human)): 100%; residual activity (PRKCE (human)): 103%; residual activity (CHEK1 (human)): 90.8%

Source: the kinase profiling compilation of Christmann-Franck et al. (2016)
